From ChEMBL document CHEMBL1130148, “Synthesis and study of thiocarbonate derivatives of choline as potential inhibitors of acetylcholinesterase” (J Med Chem, 1997)

Experiments:
[1] = target: T1, Acetylcholinesterase (Homo sapiens, UniProt P22303); experiment: Inhibition of Acetylcholinesterase from human red blood cells
[2] = target: T2, Acetylcholinesterase (Bos taurus, UniProt P23795); experiment: Inhibition of Acetylcholinesterase activity of calf forebrain
T2 sequence (P23795 whole entry): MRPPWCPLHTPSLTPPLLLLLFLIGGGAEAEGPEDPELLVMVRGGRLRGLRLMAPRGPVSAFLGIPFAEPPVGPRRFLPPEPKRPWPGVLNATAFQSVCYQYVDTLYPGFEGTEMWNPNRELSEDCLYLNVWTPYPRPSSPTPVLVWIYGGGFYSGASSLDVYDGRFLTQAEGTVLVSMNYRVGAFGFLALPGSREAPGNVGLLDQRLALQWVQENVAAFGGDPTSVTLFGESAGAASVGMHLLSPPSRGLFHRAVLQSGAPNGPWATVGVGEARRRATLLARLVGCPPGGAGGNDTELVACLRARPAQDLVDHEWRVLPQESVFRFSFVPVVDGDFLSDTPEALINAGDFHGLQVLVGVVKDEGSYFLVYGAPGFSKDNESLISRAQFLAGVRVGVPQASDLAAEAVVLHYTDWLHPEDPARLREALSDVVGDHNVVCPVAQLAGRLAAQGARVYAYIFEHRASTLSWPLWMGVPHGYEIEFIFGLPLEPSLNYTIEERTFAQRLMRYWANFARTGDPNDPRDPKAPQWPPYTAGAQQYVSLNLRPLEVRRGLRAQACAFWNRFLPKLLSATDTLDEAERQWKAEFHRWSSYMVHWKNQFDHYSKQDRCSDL

[3] = target: T2, Acetylcholinesterase; experiment: Binding affinity against Acetylcholinesterase of purified calf forebrain (CFB)
[4] = target: T1, Acetylcholinesterase; experiment: Binding affinity against Acetylcholinesterase of human RBC
[5] = target: T1, Acetylcholinesterase; experiment: In vitro inhibition of Acetylcholinesterase activity from human red blood cells was evaluated using 1 mM of ATC as substrate; NI=Not inhibitory
[6] = target: T2, Acetylcholinesterase; experiment: In vitro inhibition of Acetylcholinesterase activity from calf fore brain was evaluated using 1 mM of ATC as substrate; NI=Not inhibitory

T1 sequence (P22303 whole entry): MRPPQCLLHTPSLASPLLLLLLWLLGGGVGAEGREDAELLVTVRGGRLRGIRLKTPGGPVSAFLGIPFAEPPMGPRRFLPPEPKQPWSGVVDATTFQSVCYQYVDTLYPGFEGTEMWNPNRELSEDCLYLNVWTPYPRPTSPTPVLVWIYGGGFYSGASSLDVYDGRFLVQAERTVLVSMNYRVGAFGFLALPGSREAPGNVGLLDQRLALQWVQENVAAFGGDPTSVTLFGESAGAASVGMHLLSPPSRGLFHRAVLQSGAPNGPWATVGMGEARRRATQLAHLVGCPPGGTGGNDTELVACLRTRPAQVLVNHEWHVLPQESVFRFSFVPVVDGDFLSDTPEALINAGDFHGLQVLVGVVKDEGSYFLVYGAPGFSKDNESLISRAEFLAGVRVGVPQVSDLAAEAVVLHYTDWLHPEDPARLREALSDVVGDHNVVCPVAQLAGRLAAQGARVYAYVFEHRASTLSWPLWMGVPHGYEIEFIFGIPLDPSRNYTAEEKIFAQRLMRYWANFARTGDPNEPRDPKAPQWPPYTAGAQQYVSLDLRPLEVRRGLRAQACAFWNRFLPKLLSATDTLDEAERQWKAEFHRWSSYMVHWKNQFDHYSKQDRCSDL

Compound | IC50 [1] | IC50 [2] | Ki [3] | Ki [4] | IC50 [5] | IC50 [6]
CCC(C)CSC(=O)OCC[N+](C)(C)C.[Cl-] (stereo not given) | 1000 µM | 800 µM |  |  |  | 
CCCCCCSC(=O)OCC[N+](C)(C)C | 80 µM | 20 µM |  |  |  | 
CCCCSC(=O)OCC[N+](C)(C)C | 500 µM | 100 µM |  |  |  | 
CCCCCCCSC(=O)OCC[N+](C)(C)C | 50 µM | 10 µM | 10 µM | 20 µM |  | 
CC(C)(C)SC(=O)OCC[N+](C)(C)C.[Cl-] |  |  |  |  | No inhibition | No inhibition
CCSC(=O)OCC[N+](C)(C)C | > 10000 µM | > 10000 µM |  |  |  | 
CCc1ccccc1SC(=O)OCC[N+](C)(C)C.[Cl-] | 50 µM | 10 µM |  |  |  | 
CCCCCSC(=O)OCC[N+](C)(C)C | 0.8 µM | 1 µM | 1 µM |  |  | 
CCC(C)(C)SC(=O)OCC[N+](C)(C)C.[Cl-] | 40 µM | 10 µM |  |  |  | 
CCc1ccc(SC(=O)OCC[N+](C)(C)C)cc1 | 500 µM | 100 µM |  |  |  | 
CCCSC(=O)OCC[N+](C)(C)C | > 5000 µM | > 1000 µM |  |  |  | 
CC(C)SC(=O)OCC[N+](C)(C)C.[Cl-] |  |  |  |  | No inhibition | No inhibition
C[N+](C)(C)CCOC(=O)Sc1ccccc1.[Cl-] | 1000 µM | 100 µM |  |  |  | 
CC(C)CCSC(=O)OCC[N+](C)(C)C | 50 µM | 10 µM |  |  |  | 
CCN(CC)CCNC(=O)c1ccc(N)cc1 [PROCAINAMIDE] | 1 µM | 0.5 µM | 1 µM | 1 µM |  | 
